# Results taken from patent US6939863B2, “Prevention of atherosclerosis and restenosis” (priority 2002, dated 2005).
# Assays:
# [1] = summary table; cited from earlier work
# restenosis [2] = details: summary table; cited from earlier work
# [3] = summary table; cited from earlier work; remark: listed apart in the source
# endothelial cells = details: summary table; cited from earlier work; also: key: '+' represents the ability; a '−' represents the inability of conversion from a non-contracile phenotype to a contractile phenotype in an in vitro condition; A '↓' represents decrease; a '?' represents no data is available
# collagen expression = details: summary table; cited from earlier work
# smooth muscle cells = details: conversion from non-contractile to contractile phenotype in vitro; cited from earlier work
# restenosis [4] = details: summary table; cited from earlier work; remark: listed apart in the source
# restenosis [5] = details: summary table; cited from earlier work; remark: listed apart in the source
# [6] = tested on: rat vascular smooth muscle cells; experiment: [methyl-3H]thymidine incorporation into VSMCs; assay type: cell-based; details: concentration-dependent
# Protocol: (§1) Rat vascular smooth muscle cells (VSMCs) (passages 5-10) were prepared from Sprague-Dawley rats and cultured in Dulbecco's modified Eagle's medium (DMEM) supplemented with 10% fetal bovine serum (FBS) as previously described (Kirschenlohr et al, in “Human Cell Culture Protocols”, New Jersey, Humana Press Inc, 1996, pp. 318-335). Human endothelial cells from umbilical veins were prepared as described (Morgan, in “Human Cell Culture Protocols”, New Jersey, Humana Press Inc, 1996, pp. 101-152)
# (§2) Rat vascular smooth muscle cells and human endothelial cells were plated at a density of 10,000 cells per square centimeter in 24-well plates. After 24 hours, cells at 70-80% confluency were treated with propylthiouracil dissolved in 100% dimethylsulfoxide (DMSO) at final concentrations of from 0.05 millimolar to 15 millimolar, or with methimazole (Sigma, St. Louis, Mo.) dissolved in water at the concentrations of from 0.01 millimolar to 1 millimolar for 24-72 hours. Cell numbers were visually counted using a hemocytometer. For the thymidine incorporation study, cells were deprived of serum for 36 hours and labeled with [methyl-^3H]thymidine at […] per milliliter for 12-24 hours after synchronization. Thymidine incorporation was then measured (Newby and George, 1996, Curr. Opin. Cardiol., 11:547). Effects of propylthiouracil and methimazole on the number of vascular smooth muscle cells and human endothelial cells and thymidine incorporation by vascular smooth muscle cells were each expressed as a percentage of the number and thymidine incorporation of control cells maintained in medium containing 0.1% DMSO as vehicle.
# [7] = tested on: rat vascular smooth muscle cells; experiment: Vascular smooth muscle cell proliferation (cell number); assay type: cell-based; details: concentration-dependent; PTU 0.05-5 millimolar, methimazole 0.01-1 millimolar
# Protocol: as §1, §2
# For Anti-coagulation in this document: key: '+' represents the ability; a '−' represents the inability of conversion from a non-contracile phenotype to a contractile phenotype in an in vitro condition; A '↓' represents decrease; a '?' represents no data is available.
# For Anti-inflammation in this document: key: '+' represents the ability; a '−' represents the inability of conversion from a non-contracile phenotype to a contractile phenotype in an in vitro condition; A '↓' represents decrease; a '?' represents no data is available.
# For Effect on animal models of restenosis, Rat in this document: key: '+' represents the ability; a '−' represents the inability of conversion from a non-contracile phenotype to a contractile phenotype in an in vitro condition; A '↓' represents decrease; a '?' represents no data is available.
molecule,measurement,setting,value
CC1=C(/C=C/C(C)=C/C=C/C(C)=C/C(=O)O)C(C)(C)CCC1 [All-trans retinoic acid],Anti-coagulation,[1],−
same,"Effect on animal models of restenosis, Rat",restenosis [2],+
same,Anti-inflammation,[3],−
same,Endothelial cellular function,endothelial cells,+
same,Collagen expression,collagen expression,↑
same,Phenotype change,smooth muscle cells,+
CC(=O)O[C@H]1C(=O)[C@@]2(C)[C@H]([C@H](OC(=O)c3ccccc3)[C@]3(O)C[C@H](OC(=O)[C@H](O)[C@@H](NC(=O)c4ccccc4)c4ccccc4)C(C)=C1C3(C)C)[C@]1(OC(C)=O)CO[C@@H]1C[C@@H]2O [Paclitaxel],"Effect on animal models of restenosis, Rat",restenosis [2],+
same,"Effect on animal models of restenosis, Pig",restenosis [4],+
same,"Effect on restenosis, Human",restenosis [5],+
same,Endothelial cellular function,endothelial cells,−
Cn1cc[nH]c1=S [methimazole],Inhibition of thymidine incorporation into VSMCs,[6],"but not methimazole (MMI), significantly inhibited"
same,Inhibition of growth/proliferation of VSMCs,[7],"but not methimazole (MMI), significantly inhibited"
Heparin,Anti-coagulation,[1],+
same,"Effect on animal models of restenosis, Rat",restenosis [2],+
same,Anti-inflammation,[3],−
same,"Effect on animal models of restenosis, Pig",restenosis [4],+
same,"Effect on restenosis, Human",restenosis [5],−
same,Endothelial cellular function,endothelial cells,−
same,Phenotype change,smooth muscle cells,−
